{"source": "patent US20250019671A1", "about": "“RECOMBINANT POLYPEPTIDE HAVING CARBOXYLIC ACID REDUCING ACTIVITY” (priority 2021, published 2025)", "key": {"[1]": {"system": "Mycobacterium abscessus carboxylic acid reductase variant G418E", "conditions": "literature value (Non Patent Literature 6); cited from earlier work"}, "[2]": {"system": "Mycobacterium abscessus carboxylic acid reductase variant W283R/A303M (modified carboxylic acid reductase 1), SEQ ID NO: 3", "from_the_text": "(§1) Examples of the recombinant polypeptide (also referred to as “modified carboxylic acid reductase”) having the amino acid sequence A according to the present invention are illustrated in FIG. 3 (modified carboxylic acid reductase 1, SEQ ID NO: 3) and FIG. 4 (modified carboxylic acid reductase 2, SEQ ID NO: 4). The modified carboxylic acid reductase 1 (consisting of the polypeptide set forth in SEQ ID NO: 3) illustrated in FIG. 3 has amino acid substitutions of W283R and A303M with respect to SEQ ID NO: 1. The modified carboxylic acid reductase 2 (consisting of the polypeptide set forth in SEQ ID NO: 4) illustrated in FIG. 4 has amino acid substitutions of W283R and L335F with respect to SEQ ID NO: 1. That is, in the modified carboxylic acid reductase 1, the amino acid residue at the position corresponding to position 283 and the amino acid residue at the position corresponding to position 303 are substituted with arginine and methionine, respectively, based on the amino acid sequence set forth in SEQ ID NO: 1. In the modified carboxylic acid reductase 2, the amino acid residue at the position corresponding to position 283 and the amino acid residue at the position corresponding to position 335 are substituted with arginine and phenylalanine, respectively, based on the amino acid sequence set forth in SEQ ID NO: 1."}, "[3]": {"molecular_target": "Mycobacterium abscessus carboxylic acid reductase variant W283R/A303M (modified carboxylic acid reductase 1), SEQ ID NO: 3 (Mycobacteroides abscessus, UniProt B1MLD7, A303M/W283R)", "conditions": "disodium adipate 0.1875-3 mM; 0.2 mM NADPH, 0.5 mM ATP, pH=8.0, 30° C.; mean of two independent studies", "from_the_text": "as §1"}, "[4]": {"system": "Mycobacterium abscessus carboxylic acid reductase variant L342E", "conditions": "literature value (Non Patent Literature 6); cited from earlier work"}, "O=C(O)CCCCC(=O)O": {"system": "O=C(O)CCCCC(=O)O", "experiment": "purified protein, by the assay type", "conditions": "0.2 mM NADPH, 0.5 mM ATP, 10 mM MgCl2, 100 mM HEPES potassium buffer pH=8.0, 30° C., mean of two independent studies"}, "[5]": {"conditions": "other: disodium adipate 3.125-50 mM"}}}
{"compound": "O=C(O)CCCCC(=O)O", "note": "[adipic acid, hexanedioic acid]", "values": [{"measurement": "Km", "setting": "[1]", "value": 18.7, "unit": "mM"}, {"measurement": "Km of the mutant enzyme for adipic acid compared to the existing variant carboxylic acid reductases (L342 and G418E mutants)", "setting": "[2]; W283R/A303M mutant vs literature L342 and G418E mutants", "value": "1/17"}, {"measurement": "Km of the mutant enzyme for adipic acid relative to that of the wild-type enzyme", "setting": "[2]; W283R/A303M mutant vs wild-type enzyme", "value": "1/20"}, {"measurement": "Kcat", "setting": "[3]", "value": 3.53, "unit": "s⁻¹"}, {"measurement": "Vmax", "setting": "[3]", "value": 24.8, "unit": "µmol/L/min"}, {"measurement": "Kcat", "setting": "[4]", "value": "2.72 ± 0.09", "unit": "s⁻¹"}, {"measurement": "Km", "setting": "[4]", "value": 56.6, "unit": "mM"}]}
{"compound": "Mycobacterium abscessus carboxylic acid reductase variant W283R/A303M (modified carboxylic acid reductase 1), SEQ ID NO: 3 (Mycobacteroides abscessus ATCC 19977; A303M/W283R)", "values": [{"measurement": "Km", "setting": "O=C(O)CCCCC(=O)O; other: disodium adipate 0.1875-3 mM", "value": 1.06, "unit": "mM"}]}
{"compound": "Mycobacterium abscessus carboxylic acid reductase, wild-type, SEQ ID NO: 1 (Mycobacteroides abscessus ATCC 19977)", "values": [{"measurement": "Km", "setting": "O=C(O)CCCCC(=O)O; [5]", "value": 23.3, "unit": "mM"}, {"measurement": "Vmax", "setting": "O=C(O)CCCCC(=O)O; [5]", "value": 18.1, "unit": "µM/min"}, {"measurement": "kcat", "setting": "O=C(O)CCCCC(=O)O; [5]", "value": 1.68, "unit": "s⁻¹"}]}
